pIC50: −log10 of the molar value.
System: 138582-337-R-J1-PDC complex spheroid viability
Test: Anticancer human tumor 138582-337-R-J1-PDC patient-derived Merkel cell tumor cell line growth inhibition
Conditions: for pIC50: curve of first compound; for viability, T/C: stronger effect = lower value
How it was run: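 Drug combinations with the LSD1 inhibitor iadademstat tested on tumor cells co-cultured as spheroids with endothelial cells and mesenchymal stem cells. Concentrations descended in half-log increments from clinical Cmax or 10 microM.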

[1] = second compound 0.1 µM, first compound 0.00316 µM
[2] = second compound 0.1 µM, first compound 0.01 µM
[3] = second compound 0.1 µM, first compound 0.0316 µM
[4] = second compound 0.1 µM, first compound 0.1 µM
[5] = second compound 0.316 µM, first compound 0.00316 µM
[6] = second compound 0.316 µM, first compound 0.01 µM
[7] = second compound 0.316 µM, first compound 0.0316 µM
[8] = second compound 0.316 µM, first compound 0.1 µM
[9] = second compound 1 µM, first compound 0.00316 µM
[10] = second compound 1 µM, first compound 0.01 µM
[11] = second compound 1 µM, first compound 0.0316 µM
[12] = second compound 1 µM, first compound 0.1 µM
[13] = second compound 3.16 µM, first compound 0.00316 µM
[14] = second compound 3.16 µM, first compound 0.01 µM
[15] = second compound 3.16 µM, first compound 0.0316 µM
[16] = second compound 3.16 µM, first compound 0.1 µM
[17] = second compound 10 µM, first compound 0.00316 µM
[18] = second compound 10 µM, first compound 0.01 µM
[19] = second compound 10 µM, first compound 0.0316 µM
[20] = second compound 10 µM, first compound 0.1 µM
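Further: spheroids exposed to agents for 7 days.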
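Wherever viability, T/C is given: 100% = DMSO vehicle control viability.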

Structure (SMILES): COc1cc(Nc2ncc3c(n2)-c2ccc(Cl)cc2C(c2c(F)cccc2OC)=NC3)ccc1C(=O)O + NC1CCC(NC2CC2c2ccccc2)CC1
- pIC50 (second compound 0.1 µM): < 6.00
- pIC50 (second compound 0.316 µM): < 6.00
- pIC50 (second compound 1 µM): < 6.00
- pIC50 (second compound 3.16 µM): < 6.00
- pIC50 (second compound 10 µM): < 6.00
- viability, T/C [1]: 89.6%
- viability, T/C [2]: 97.8%
- viability, T/C [3]: 85.2%
- viability, T/C [4]: 83.3%
- viability, T/C (second compound 0.1 µM, first compound 0.316 µM): 93%
- viability, T/C (second compound 0.1 µM, first compound 1 µM): 88.3%
- viability, T/C [5]: 99.2%
- viability, T/C [6]: 91.4%
- viability, T/C [7]: 91.4%
- viability, T/C [8]: 86.8%
- viability, T/C (second compound 0.316 µM, first compound 0.316 µM): 98.2%
- viability, T/C (second compound 0.316 µM, first compound 1 µM): 90.1%
- viability, T/C [9]: 89.6%
- viability, T/C [10]: 93.3%
- viability, T/C [11]: 88.1%
- viability, T/C [12]: 98%
- viability, T/C (second compound 1 µM, first compound 0.316 µM): 96.3%
- viability, T/C (second compound 1 µM, first compound 1 µM): 84.1%
- viability, T/C [13]: 98.2%
- viability, T/C [14]: 94.9%
- viability, T/C [15]: 87.1%
- viability, T/C [16]: 78.9%
- viability, T/C (second compound 3.16 µM, first compound 0.316 µM): 74.7%
- viability, T/C (second compound 3.16 µM, first compound 1 µM): 83%
- viability, T/C [17]: 99.9%
- viability, T/C [18]: 98.6%
- viability, T/C [19]: 90.5%
- viability, T/C [20]: 76.9%
- viability, T/C (second compound 10 µM, first compound 0.316 µM): 87.2%
- viability, T/C (second compound 10 µM, first compound 1 µM): 74.2%

Structure (SMILES): Cn1ncnc1C1c2n[nH]c(=O)c3cc(F)cc(c23)NC1c1ccc(F)cc1 (stereo not given) + NC1CCC(NC2CC2c2ccccc2)CC1
- pIC50 (second compound 0.1 µM): < 7.00
- pIC50 (second compound 0.316 µM): < 7.00
- pIC50 (second compound 1 µM): < 7.00
- pIC50 (second compound 3.16 µM): < 7.00
- pIC50 (second compound 10 µM): < 7.00
- viability, T/C (second compound 0.1 µM, first compound 0.000316 µM): 82.5%
- viability, T/C (second compound 0.1 µM, first compound 0.001 µM): 87.7%
- viability, T/C [1]: 89%
- viability, T/C [2]: 91.2%
- viability, T/C [3]: 87.9%
- viability, T/C [4]: 98.5%
- viability, T/C (second compound 0.316 µM, first compound 0.000316 µM): 84.7%
- viability, T/C (second compound 0.316 µM, first compound 0.001 µM): 90.9%
- viability, T/C [5]: 95.7%
- viability, T/C [6]: 79.1%
- viability, T/C [7]: 93.3%
- viability, T/C [8]: 105%
- viability, T/C (second compound 1 µM, first compound 0.000316 µM): 97.5%
- viability, T/C (second compound 1 µM, first compound 0.001 µM): 88.7%
- viability, T/C [9]: 94.3%
- viability, T/C [10]: 83.8%
- viability, T/C [11]: 90.7%
- viability, T/C [12]: 97.9%
- viability, T/C (second compound 3.16 µM, first compound 0.000316 µM): 101%
- viability, T/C (second compound 3.16 µM, first compound 0.001 µM): 89.4%
- viability, T/C [13]: 83.1%
- viability, T/C [14]: 81.2%
- viability, T/C [15]: 82.3%
- viability, T/C [16]: 102%
- viability, T/C (second compound 10 µM, first compound 0.000316 µM): 84.7%
- viability, T/C (second compound 10 µM, first compound 0.001 µM): 82.8%
- viability, T/C [17]: 83.2%
- viability, T/C [18]: 77%
- viability, T/C [19]: 73.7%
- viability, T/C [20]: 81.5%

Structure (SMILES): NS(=O)(=O)OCC1CC(n2ccc3c(NC4CCc5ccccc54)ncnc32)CC1O (stereo not given) + NC1CCC(NC2CC2c2ccccc2)CC1
- pIC50 (second compound 0.1 µM): 6.21
- pIC50 (second compound 0.316 µM): 6.18
- pIC50 (second compound 1 µM): 6.20
- pIC50 (second compound 3.16 µM): 6.33
- pIC50 (second compound 10 µM): 6.09
- viability, T/C (second compound 0.1 µM, first compound 0.00949 µM): 98.5%
- viability, T/C (second compound 0.1 µM, first compound 0.03 µM): 114%
- viability, T/C (second compound 0.1 µM, first compound 0.0949 µM): 92.1%
- viability, T/C (second compound 0.1 µM, first compound 0.3 µM): 67.2%
- viability, T/C (second compound 0.1 µM, first compound 0.949 µM): 40.5%
- viability, T/C (second compound 0.1 µM, first compound 3 µM): 33.1%
- viability, T/C (second compound 0.316 µM, first compound 0.00949 µM): 112%
- viability, T/C (second compound 0.316 µM, first compound 0.03 µM): 96.2%
- viability, T/C (second compound 0.316 µM, first compound 0.0949 µM): 84.2%
- viability, T/C (second compound 0.316 µM, first compound 0.3 µM): 67.3%
- viability, T/C (second compound 0.316 µM, first compound 0.949 µM): 37.4%
- viability, T/C (second compound 0.316 µM, first compound 3 µM): 37%
- viability, T/C (second compound 1 µM, first compound 0.00949 µM): 106%
- viability, T/C (second compound 1 µM, first compound 0.03 µM): 107%
- viability, T/C (second compound 1 µM, first compound 0.0949 µM): 85.5%
- viability, T/C (second compound 1 µM, first compound 0.3 µM): 72.4%
- viability, T/C (second compound 1 µM, first compound 0.949 µM): 35.3%
- viability, T/C (second compound 1 µM, first compound 3 µM): 32.2%
- viability, T/C (second compound 3.16 µM, first compound 0.00949 µM): 101%
- viability, T/C (second compound 3.16 µM, first compound 0.03 µM): 119%
- viability, T/C (second compound 3.16 µM, first compound 0.0949 µM): 90.1%
- viability, T/C (second compound 3.16 µM, first compound 0.3 µM): 64.3%
- viability, T/C (second compound 3.16 µM, first compound 0.949 µM): 29.8%
- viability, T/C (second compound 3.16 µM, first compound 3 µM): 22.2%
- viability, T/C (second compound 10 µM, first compound 0.00949 µM): 107%
- viability, T/C (second compound 10 µM, first compound 0.03 µM): 107%
- viability, T/C (second compound 10 µM, first compound 0.0949 µM): 92.8%
- viability, T/C (second compound 10 µM, first compound 0.3 µM): 79.5%
- viability, T/C (second compound 10 µM, first compound 0.949 µM): 44.4%
- viability, T/C (second compound 10 µM, first compound 3 µM): 26%
